≈ marks a conversion by molar mass, not a printed value.
How the values were obtained:
Daoy [1] = test: Cytotoxicity against human DaOY cells assessed as inhibition of cell survival at 25 ug/ml after 24 hrs by MTT assay; assay type: functional
[2] = Cytotoxicity against human UW228-2 cells assessed as inhibition of cell survival at 25 ug/ml after 24 hrs by MTT assay; assay type: functional; conditions: UW228-2, 24 h
[3] = Cytotoxicity against human HuH7 cells assessed as inhibition of cell survival at 25 ug/ml after 24 hrs by MTT assay; assay type: functional; conditions: Huh-7, 24 h
HeLa [4] = test: Cytotoxicity against human HeLa cells assessed as inhibition of cell survival at 25 ug/ml after 24 hrs by MTT assay; assay type: functional
MDA-MB-231 [5] = test: Cytotoxicity against human MDA-MB-231 cells assessed as inhibition of cell survival at 25 ug/ml after 24 hrs by MTT assay; assay type: functional; conditions: MDA-MB-231, 24 h
Daoy [6] = test: Cytotoxicity against human DaOY cells assessed as inhibition of cell survival after 24 hrs by MTT assay; assay type: functional, cell-based
HeLa [7] = test: Cytotoxicity against human HeLa cells assessed as inhibition of cell survival after 24 hrs by MTT assay; assay type: functional, cell-based
[8] = Cytotoxicity against human UW228-2 cells assessed as inhibition of cell survival after 24 hrs by MTT assay; assay type: functional, cell-based; conditions: UW228-2, 24 h
[9] = Cytotoxicity against human HuH7 cells assessed as inhibition of cell survival after 24 hrs by MTT assay; assay type: functional, cell-based; conditions: Huh-7, 24 h
MDA-MB-231 [10] = test: Cytotoxicity against human MDA-MB-231 cells assessed as inhibition of cell survival after 24 hrs by MTT assay; assay type: functional, cell-based; conditions: MDA-MB-231, 24 h

Compound	inhibition at 25 µg/mL (Daoy [1]) [%]	inhibition at 25 µg/mL [2] [%]	inhibition at 25 µg/mL [3] [%]	inhibition at 25 µg/mL (HeLa [4]) [%]	inhibition at 25 µg/mL (MDA-MB-231 [5]) [%]	IC50 (Daoy [6]) [µg/mL]	IC50 (HeLa [7]) [µg/mL]	IC50 [8] [µg/mL]	IC50 [9] [µg/mL]	IC50 (MDA-MB-231 [10]) [µg/mL]
O=C1Nc2ccc([N+](=O)[O-])cc2/C1=N/NC(=O)c1ccccc1NC(=O)c1ccc([N+](=O)[O-])cc1	31.9	4.8	8.2	14.7	0	–	–	–	–	–
Cc1ccc(-c2nc3ccccc3c(=O)n2/N=C2\C(=O)Nc3ccc([N+](=O)[O-])cc32)cc1	58.8	22.8	0	52.9	23.6	11.7 (≈ 27.4 µM)	21.1 (≈ 49.7 µM)	–	–	–
COc1ccc2c(c1)/C(=N/NC(=O)c1ccccc1NC(=O)c1ccc([N+](=O)[O-])cc1)C(=O)N2	11.1	24.5	33.2	16.3	34.8	–	–	–	–	–
O=C1Nc2ccc(Cl)cc2/C1=N/n1c(-c2cccs2)nc2ccccc2c1=O	69.3	28.4	0	69.7	6.1	15.7 (≈ 38.5 µM)	17 (≈ 41.7 µM)	–	–	–
COc1ccc2c(c1)/C(=N/n1c(-c3cccs3)nc3ccccc3c1=O)C(=O)N2	80.5	56.4	62.7	67	13.6	3.25 (≈ 8.08 µM)	11 (≈ 27.3 µM)	21.4 (≈ 53.2 µM)	19.9 (≈ 49.5 µM)	–
Cc1ccc(C(=O)Nc2ccccc2C(=O)N/N=C2\C(=O)Nc3ccc(Cl)cc32)cc1	77.1	88.7	84.1	86.7	85	1.86 (≈ 4.3 µM)	6.52 (≈ 15.1 µM)	6.87 (≈ 15.9 µM)	3.2 (≈ 7.39 µM)	5.95 (≈ 13.7 µM)
O=C1Nc2ccc([N+](=O)[O-])cc2/C1=N/n1c(-c2cccs2)nc2ccccc2c1=O	18.4	0	0	0	0	–	–	–	–	–
Cc1ccc(C(=O)Nc2ccccc2C(=O)N/N=C2\C(=O)Nc3ccc([N+](=O)[O-])cc32)cc1	75.8	38.5	55.2	26.8	30.2	6.61 (≈ 14.9 µM)	–	–	11.6 (≈ 26.2 µM)	–
O=C1Nc2ccccc2/C1=N/NC(=O)c1ccccc1NC(=O)c1ccc([N+](=O)[O-])cc1	79.1	51.8	48.6	55	44.9	2.72 (≈ 6.33 µM)	16.5 (≈ 38.5 µM)	20 (≈ 46.6 µM)	–	–
COc1ccc2c(c1)/C(=N/n1c(-c3ccc(C)cc3)nc3ccccc3c1=O)C(=O)N2	82.8	58.9	53.6	68	35.4	3.61 (≈ 8.8 µM)	9.89 (≈ 24.1 µM)	20.8 (≈ 50.7 µM)	22.8 (≈ 55.6 µM)	–
Cc1ccc(-c2nc3ccccc3c(=O)n2/N=C2\C(=O)Nc3ccc(C)cc32)cc1	47	2.1	7.2	42.8	34.3	–	–	–	–	–
Cc1ccc(-c2nc3ccccc3c(=O)n2/N=C2\C(=O)Nc3ccc(Cl)cc32)cc1	75.4	88	83.3	80.8	78.1	1.46 (≈ 3.52 µM)	8.6 (≈ 20.7 µM)	5.7 (≈ 13.7 µM)	3.76 (≈ 9.06 µM)	4.8 (≈ 11.6 µM)
COc1ccc2c(c1)/C(=N/NC(=O)c1ccccc1NC(=O)c1ccc(C)cc1)C(=O)N2	77.2	84.8	81.6	80.3	59.4	4.42 (≈ 10.3 µM)	8.09 (≈ 18.9 µM)	5.82 (≈ 13.6 µM)	4.6 (≈ 10.7 µM)	10.9 (≈ 25.4 µM)
O=C1Nc2ccccc2/C1=N/n1c(-c2cccs2)nc2ccccc2c1=O	69.7	0	0	36.2	10.7	5.4 (≈ 14.5 µM)	–	–	–	–
Cc1ccc(C(=O)Nc2ccccc2C(=O)N/N=C2\C(=O)Nc3ccc(C)cc32)cc1	49.1	23.2	38	46.5	37.7	–	–	–	–	–
Cc1ccc2c(c1)/C(=N/n1c(-c3cccs3)nc3ccccc3c1=O)C(=O)N2	59.4	32.1	32.9	57.8	29.5	19 (≈ 49.1 µM)	19.3 (≈ 49.9 µM)	–	–	–
Cc1ccc2c(c1)/C(=N/NC(=O)c1ccccc1NC(=O)c1ccc([N+](=O)[O-])cc1)C(=O)N2	62.7	58.7	55.8	46.1	40.8	11.9 (≈ 26.7 µM)	–	9.62 (≈ 21.7 µM)	19.3 (≈ 43.5 µM)	–
O=C1Nc2ccc(Cl)cc2/C1=N/NC(=O)c1ccccc1NC(=O)c1ccc([N+](=O)[O-])cc1	36.6	41.6	43.1	31	35.5	–	–	–	–	–
Cc1ccc(-c2nc3ccccc3c(=O)n2/N=C2\C(=O)Nc3ccccc32)cc1	41.4	9.3	2.9	42.3	24.7	–	–	–	–	–
Cc1ccc(C(=O)Nc2ccccc2C(=O)N/N=C2\C(=O)Nc3ccccc32)cc1	72.8	71.7	56.4	30.4	46.8	3.94 (≈ 9.89 µM)	–	6.06 (≈ 15.2 µM)	5 (≈ 12.5 µM)	–
Cc1cc(Br)cc2c1NC(=O)/C2=C1\SC(=S)NC1=O	64.8	51.4	61.8	57.6	52.5	8.12 (≈ 22.9 µM)	13.5 (≈ 38 µM)	16.4 (≈ 46.2 µM)	8.18 (≈ 23 µM)	19.7 (≈ 55.5 µM)

Source: ChEMBL document CHEMBL3407401, “Development of certain novel N-(2-(2-(2-oxoindolin-3-ylidene)hydrazinecarbonyl)phenyl)-benzamides and 3-(2-oxoindolin-3-ylideneamino)-2-substituted quinazolin-4(3H)-ones as CFM-1 analogs: design, synthesis, QSAR analysis and anticancer activity” (Eur J Med Chem, 2015)
